Measured values from the supplement of paper PMC10307832.

Legend:
Assay in all cases: relative viability (nuclei count vs DMSO), 5 days (fraction); higher = more cells survive
[1] = compound: C1CSC2=C(C(=O)N1)SC3=C2C=C(C=C3)O [kb NB 142-70] + NC(=O)Nc1cc(-c2cccc(F)c2)sc1C(=O)N[C@H]1CCCNC1 [AZD7762] (partner 0.2 µM)
Procedure, shortened: (§1)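 Medians of duplicate plates are given as relative viability. That measure is the nuclei count in treated wells divided by the count in vehicle wells. Counts were taken on 4× images of lung cancer cell lines in 1536-well plates, 5 days after pin-tool dosing the day after seeding with one drug alone or a fixed anchor-drug dose plus five library-drug doses (not always all listed) in √10 steps.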

[2] = compound: C1CSC2=C(C(=O)N1)SC3=C2C=C(C=C3)O [kb NB 142-70] + O=C(CCCCCCC(=O)Nc1ccccc1)NO [Vorinostat] (partner 1 µM)
Procedure, shortened: as §1

[3] = compound: NCC(=O)Nc1ccc(-n2nc(C(F)(F)F)cc2-c2ccc3c(ccc4ccccc43)c2)cc1 + C[C@@H](Oc1cc(-c2cnn(C3CCNCC3)c2)cnc1N)c1c(Cl)ccc(F)c1Cl [Crizotinib] (partner 1 µM)
Procedure, shortened: as §1

[4] = compound: NCC(=O)Nc1ccc(-n2nc(C(F)(F)F)cc2-c2ccc3c(ccc4ccccc43)c2)cc1 + Cc1nc(NC(=O)N2CCC[C@H]2C(N)=O)sc1-c1ccnc(C(C)(C)C(F)(F)F)c1 [Alpelisib] (partner 2 µM)
Procedure, shortened: as §1

| Cell Line | relative viability ([1]; first compound 0.1 µM) | relative viability ([1]; first compound 1 µM) | relative viability ([1]; first compound 3.162 µM) | relative viability ([2]; first compound 0.1 µM) | relative viability ([2]; first compound 1 µM) | relative viability ([2]; first compound 3.162 µM) | relative viability ([3]; first compound 0.02 µM) | relative viability ([3]; first compound 0.06325 µM) | relative viability ([3]; first compound 0.2 µM) | relative viability ([3]; first compound 0.6325 µM) | relative viability ([3]; first compound 2 µM) | relative viability ([4]; first compound 0.02 µM) | relative viability ([4]; first compound 0.06325 µM) | relative viability ([4]; first compound 0.2 µM) | relative viability ([4]; first compound 0.6325 µM) | relative viability ([4]; first compound 2 µM) |
| --- | --- | --- | --- | --- | --- | --- | --- | --- | --- | --- | --- | --- | --- | --- | --- | --- |
| LXF-289 | 1.11 | 1.1 | 1.27 | 0.713 | 0.711 | 0.51 | 0.834 | 0.821 | 0.799 | 0.823 | 0.779 | 1.08 | 1.08 | 1.09 | 1.06 | 1.01 |
| NCI-H23 | 0.376 | 0.291 | 0.275 | 0.703 | 0.583 | 0.298 | 0.512 | 0.501 | 0.542 | 0.509 | 0.565 | 0.59 | 0.774 | 0.865 | 0.806 | 0.725 |
| NCI-H322M | 0.634 | 0.707 | 0.846 | 0.942 | 1.06 | 0.926 | 1.06 | 0.835 | 0.962 | 0.909 | 0.922 | 0.756 | 0.772 | 0.824 | 0.657 | 0.831 |
| NCI-H358 | 0.437 | 0.44 | 0.295 | 0.699 | 0.654 | 0.127 | 0.622 | 0.557 | 0.572 | 0.56 | 0.761 | 0.82 | 0.881 | 0.931 | 0.821 | 0.939 |
| NCI-H441 | 1.06 | 1.23 | 0.863 | 0.89 | 0.844 | 0.644 | 1.08 | 0.666 | 0.73 | 0.6 | 0.749 | 0.906 | 0.715 | 0.869 | 1.01 | 0.654 |
| NCI-H460 | 0.618 | 0.904 | 0.953 | 0.733 | 0.755 | 0.436 | 0.922 | 0.952 | 0.931 | 0.811 | 0.688 | 0.576 | 0.425 | 0.486 | 0.491 | 0.449 |
| NCI-H596 | 1.13 | 1.09 | 1.09 | 0.656 | 0.67 | 0.538 | 1 | 1.12 | 1.01 | 1.05 | 0.943 | 0.63 | 0.5 | 0.483 | 0.553 | 0.505 |
| NCI-H647 | 0.412 | 0.516 | 0.537 | 0.716 | 0.597 | 0.492 | 1.17 | 1.14 | 1.13 | 0.976 | 0.747 | 1.31 | 1.15 | 1.21 | 1.12 | 0.982 |
| NCI-H650 | 0.999 | 1.09 | 0.774 | 0.514 | 0.585 | 0.363 | 0.728 | 0.809 | 0.72 | 0.653 | 0.802 | 0.882 | 1.24 | 1.3 | 1.13 | 1.37 |
| NCI-H727 | 0.531 | 0.688 | 0.769 | 1.35 | 1.18 | 1.24 | 1.03 | 0.816 | 0.897 | 0.787 | 0.899 | 0.636 | 0.561 | 0.614 | 0.531 | 0.686 |
| NCI-H838 | 0.938 | 0.925 | 1 | 0.782 | 0.77 | 0.778 | 0.856 | 0.903 | 0.879 | 0.813 | 0.761 | 0.971 | 1.01 | 1.12 | 0.916 | 0.933 |
| NCI-H1355 | 0.776 | 0.81 | 1 | 0.605 | 0.643 | 0.657 | 0.959 | 1.2 | 1.03 | 0.946 | 1.07 | 0.781 | 0.949 | 0.825 | 0.838 | 0.865 |
| NCI-H1437 | 1.14 | 1.12 | 1 | 0.857 | 0.895 | 0.77 | 0.946 | 0.85 | 0.964 | 0.94 | 0.894 | 0.944 | 0.995 | 0.999 | 0.913 | 0.918 |
| NCI-H1651 | 0.488 | 0.448 | 0.547 | 0.543 | 0.579 | 0.566 | 0.803 | 0.853 | 0.875 | 0.881 | 0.952 | 0.927 | 0.964 | 0.969 | 0.847 | 0.941 |
| NCI-H1666 | 0.879 | 0.714 | 0.89 | 1.1 | 1.05 | 0.976 | 1 | 0.904 | 1.16 | 0.854 | 0.982 | 1.07 | 0.869 | 0.852 | 0.937 | 1.09 |
| NCI-H1734 | 0.585 | 0.589 | 0.507 | 0.829 | 0.724 | 0.538 | 0.801 | 0.611 | 0.788 | 0.739 | 0.683 | 0.748 | 0.759 | 0.751 | 0.671 | 0.775 |

| Cell Line | relative viability ([1]; first compound 0.1 µM) | relative viability ([1]; first compound 1 µM) | relative viability ([1]; first compound 3.162 µM) | relative viability ([2]; first compound 0.1 µM) | relative viability ([2]; first compound 1 µM) | relative viability ([2]; first compound 3.162 µM) | relative viability ([3]; first compound 0.02 µM) | relative viability ([3]; first compound 0.06325 µM) | relative viability ([3]; first compound 0.2 µM) | relative viability ([3]; first compound 0.6325 µM) | relative viability ([3]; first compound 2 µM) | relative viability ([4]; first compound 0.02 µM) | relative viability ([4]; first compound 0.06325 µM) | relative viability ([4]; first compound 0.2 µM) | relative viability ([4]; first compound 0.6325 µM) | relative viability ([4]; first compound 2 µM) |
| --- | --- | --- | --- | --- | --- | --- | --- | --- | --- | --- | --- | --- | --- | --- | --- | --- |
| NCI-H1755 | 0.436 | 0.447 | 0.431 | 0.709 | 0.801 | 0.674 | 0.955 | 0.863 | 0.904 | 0.891 | 0.862 | 0.913 | 0.93 | 0.917 | 0.884 | 0.955 |
| NCI-H1915 | 0.679 | 0.821 | 0.851 | 0.559 | 0.565 | 0.45 | 0.864 | 0.873 | 0.871 | 0.83 | 0.898 | 1.08 | 1.08 | 1.13 | 1.02 | 1.04 |
| NCI-H1944 | 0.492 | 0.514 | 0.6 | 0.609 | 0.566 | 0.595 | 1.04 | 1.05 | 1.11 | 1.06 | 1.13 | 0.865 | 0.833 | 0.793 | 0.818 | 0.87 |
| NCI-H1975 | 0.652 | 0.748 | 0.7 | 0.708 | 0.816 | 0.554 | 0.96 | 0.954 | 0.954 | 0.906 | 0.914 | 0.668 | 0.64 | 0.652 | 0.677 | 0.693 |
| NCI-H1993 | 0.73 | 0.611 | 1.03 | 0.921 | 0.844 | 0.727 | 0.939 | 0.987 | 0.822 | 1.03 | 0.902 | 0.731 | 0.654 | 0.612 | 0.621 | 0.762 |
| NCI-H2085 | 1.02 | 1.08 | 0.77 | 0.772 | 0.857 | 0.483 | 0.862 | 0.901 | 0.938 | 0.865 | 0.819 | 0.963 | 0.978 | 0.943 | 0.972 | 0.965 |
| NCI-H2087 | 1.38 | 1.45 | 1.18 | 0.506 | 0.687 | 0.423 | 0.779 | 0.866 | 0.889 | 0.906 | 0.885 | 1.14 | 0.82 | 1.06 | 1.16 | 0.945 |
| NCI-H2126 | 0.925 | 1.03 | 1.08 | 0.755 | 0.796 | 0.805 | 1 | 1 | 1.05 | 1.01 | 1.04 | 0.784 | 0.774 | 0.724 | 0.765 | 0.788 |
| NCI-H2170 | 0.899 | 1.04 | 0.724 | 0.823 | 0.86 | 0.744 | 1.24 | 1.22 | 1.1 | 1.22 | 1.22 | 0.782 | 0.716 | 0.823 | 0.886 | 0.88 |
| NCI-H2347 | 0.873 | 0.924 | 0.737 | 0.629 | 0.641 | 0.599 | 0.755 | 0.768 | 0.822 | 0.813 | 0.688 | 1.04 | 1.03 | 1.18 | 1.15 | 1.12 |
| NCI-H2405 | 0.792 | 0.769 | 0.609 | 1.04 | 1.03 | 0.587 | 0.916 | 0.927 | 0.914 | 0.847 | 0.881 | 0.851 | 0.826 | 0.831 | 0.782 | 0.923 |
| NCI-H3122 | 1 | 1.03 | 1.02 | 0.908 | 1.08 | 0.887 | 0.275 | 0.287 | 0.266 | 0.289 | 0.279 | 0.852 | 0.847 | 0.801 | 0.823 | 0.746 |
| PC-3 [JPC-3] | 0.832 | 0.807 | 0.773 | 0.814 | 0.846 | 0.458 | 1.01 | 1.03 | 0.996 | 0.959 | 0.99 | 1.04 | 1.07 | 1.05 | 1.07 | 1.13 |
| PC-14 | 0.353 | 0.295 | 0.408 | 0.857 | 0.755 | 0.633 | 1.1 | 0.905 | 1.04 | 0.976 | 0.937 | 1.04 | 0.952 | 1.02 | 0.889 | 1.04 |
| RERF-LC-KJ | 1.02 | 0.985 | 1.04 | 0.729 | 0.754 | 0.677 | 0.867 | 0.845 | 0.847 | 0.791 | 0.809 | 0.848 | 0.899 | 0.734 | 0.883 | 0.937 |
